Test system: tobacco budworm (Heliothis virescens [Fabricius])
Experiment: Diet test: test chemical incorporated into artificial diet of tobacco budworm larvae, 5-day exposure
Type: in vivo
Conditions: for IC50 / LC50 / mortality at 100 µM / pest or weed control at 100 µM: Heliothis virescens, 120 h; for IC50: negative log of the concentration that provides 50% growth inhibition, by linear regression, read-out: pl50 (converted); for IC50 / LC50 / pest or weed control at 100 µM / Percent Growth Inhibition: 5 days, * = average of more than one test; for LC50: negative log of the concentration that provides 50% mortality, read-out: pLC50 (converted); for mortality at 100 µM / pest or weed control at 100 µM: feed or water; for mortality at 100 µM: read-out: Percent Mortality; for pest or weed control at 100 µM / Percent Growth Inhibition: rate of application 4 (negative log of molar concentration in the diet), second instar larvae, 25°C; for pest or weed control at 100 µM: read-out: Percent Growth Inhibition
Method: Candidate insecticides were incorporated into an artificial diet for evaluation of insecticidal activity against the tobacco budworm (Heliothis virescens [Fabricius]) in the following manner. Stock solutions of test chemical in dimethyl sulfoxide, ranging from […], were prepared for each rate of application. One hundred microliters of each of the stock solutions was manually stirred into 50 mL of a molten (65-70°C) wheat germ-based artificial diet. The 50 mL of molten diet containing the test chemical was poured evenly into twenty wells in the outer two rows on each side of a twenty-five well, five row plastic tray. (Each well in the tray was about 1 cm in depth, with an opening of 3 cm by 4 cm at the lip.) Molten diet containing only dimethyl sulfoxide at the levels used in the test chemical-treated diet was poured into the five wells in the third (center) row of the tray. Each tray therefore contained one test chemical at a single rate of application, together with an untreated control. The rates of application, expressed as the negative log of the molar concentration, and the corresponding concentrations of the stock solution prepared for each rate are shown below:
Single second instar tobacco budworm larvae, selected at a stage of growth at which they uniformly weigh about 5 mg each, were placed in each well. Upon completion of infestation, a sheet of clear plastic was heat-sealed over the top of the tray by use of a common household flat.iron. The trays were held at 25°C at 60% relative humidity for five days in a growth chamber. Lighting was set at 14 hours of light and 10 hours of darkness. After the 5-day exposure period, mortality counts were taken, and the surviving insects were weighed. From the weights of the surviving insects that fed on the treated diet as compared to those insects that fed on the untreated diet, the percent growth inhibition caused by each test chemical was determined. […] Also, where possible, the negative log of the concentration of the test chemical that provided 50% mortality (pLC50) was determined.

SMILES | IC50 | LC50 | mortality at 100 µM | pest or weed control at 100 µM | Percent Growth Inhibition
COc1ccc(CCN2CCC(C(O)(c3ccc(OC(F)(F)F)cc3)c3ccc(OC(F)(F)F)cc3)CC2)cc1 [Compound 2, N-[2-(4-methoxyphenyl)ethyl]-4-[bis(4-trifluoromethoxyphenyl)hydroxymethyl]piperidine] | 2.51 µM | > 100 µM | 25% | 98% | 
CC(=O)Nc1ccc(CN2CCC(C(O)(c3ccc(OC(F)(F)F)cc3)c3ccc(OC(F)(F)F)cc3)CC2)cc1 [Compound 3, N-[4-(methylcarbonylamino)phenylmethyl]-4-[bis(4-trifluoromethoxyphenyl)hydroxymethyl]piperidine] | 20 µM |  | 0% | 95% | 
Cn1ccc(-c2ccc(CN3CCC(C(O)(c4ccc(OC(F)(F)F)cc4)c4ccc(OC(F)(F)F)cc4)CC3)cc2)c1 [Compound 4] |  |  | 100% |  | 
Cc1cc(C)n(-c2ccc(CN3CCC(C(O)(c4ccc(OC(F)(F)F)cc4)c4ccc(OC(F)(F)F)cc4)CC3)cc2)n1 [Compound 5] |  |  | 100% |  | 
Cc1noc(-c2ccc(CN3CCC(C(O)(c4ccc(OC(F)(F)F)cc4)c4ccc(OC(F)(F)F)cc4)CC3)cc2)n1 [Compound 6] |  |  | 100% |  | 
Cn1nnnc1-c1ccc(CN2CCC(C(O)(c3ccc(OC(F)(F)F)cc3)c3ccc(OC(F)(F)F)cc3)CC2)cc1 [Compound 8, N-[4-(1-methyltetrazol-5-yl)phenylmethyl]-4-[bis(4-trifluoromethoxyphenyl)hydroxymethyl]piperidine] | 31.6 µM |  | 0% | 79% | 
Cn1ncn(-c2ccc(CN3CCC(C(O)(c4ccc(C(F)(F)F)cc4)c4ccc(C(F)(F)F)cc4)CC3)cc2)c1=O [Compound 12, N-[4-(4,5-dihydro-1-methyl-5-oxo-1H-1,2,4-triazol-4-yl)phenylmethyl]-4-[bis(4-trifluoromethylphenyl)hydroxymethyl]piperidine] | 3.98 µM | > 100 µM | 35% | 98% | 
OC(c1ccc(OC(F)(F)F)cc1)(c1ccc(OC(F)(F)F)cc1)C1CCN(Cc2ccc(-c3csnn3)cc2)CC1 [Compound 14] | 3.16 µM | 31.6 µM | 100% |  | 99%
Cn1nnc(-c2ccc(C[N+]3([O-])CCC(C(O)(c4ccc(OC(F)(F)F)cc4)c4ccc(OC(F)(F)F)cc4)CC3)cc2)n1 (stereo not drawn) [Compound 15] |  |  | 100% |  | 
CC(C)c1cnc(-c2ccc(CN3CCC(C(O)(c4ccc(C(F)(F)F)cc4)c4ccc(C(F)(F)F)cc4)CC3)cc2)o1 [Compound 19] |  |  | 90% |  | 
O=C1OCCN1c1ccc(CN2CCC(C(O)(c3ccc(C(F)(F)F)cc3)c3ccc(C(F)(F)F)cc3)CC2)cc1 [Compound 20] |  |  | 10% |  | 
O=C1OCCN1c1ccc(C[N+]2([O-])CCC(C(O)(c3ccc(C(F)(F)F)cc3)c3ccc(C(F)(F)F)cc3)CC2)cc1 (stereo not drawn) [Compound 21] |  |  | 10% |  | 
CC1CN(c2ccc(CN3CCC(C(O)(c4ccc(C(F)(F)F)cc4)c4ccc(C(F)(F)F)cc4)CC3)cc2)C(=O)O1 (stereo not drawn) [Compound 22] |  |  | 35% |  | 
CC1CN(c2ccc(C[N+]3([O-])CCC(C(O)(c4ccc(C(F)(F)F)cc4)c4ccc(C(F)(F)F)cc4)CC3)cc2)C(=O)O1 (stereo not drawn) [Compound 23] |  |  | 65% |  | 
CC1CN(C(=O)c2ccc(CN3CCC(C(O)(c4ccc(C(F)(F)F)cc4)c4ccc(C(F)(F)F)cc4)CC3)cc2)C(=O)O1 (stereo not drawn) [Compound 24] | 31.6 µM | > 316 µM | 0% |  | 86%
Cn1cnc(-c2ccc(CN3CCC(C(O)(c4ccc(C(F)(F)F)cc4)c4ccc(C(F)(F)F)cc4)CC3)cc2)n1 [Compound 27] |  |  | 100% |  | 
Cn1cnc(-c2ccc(C[N+]3([O-])CCC(C(O)(c4ccc(C(F)(F)F)cc4)c4ccc(C(F)(F)F)cc4)CC3)cc2)n1 (stereo not drawn) [Compound 28] |  |  | 100% |  | 
OC(c1ccc(C(F)(F)F)cc1)(c1ccc(C(F)(F)F)cc1)C1CCN(Cc2ccc(Oc3nsnc3Cl)cc2)CC1 [Compound 29] |  |  | 60% |  | 
[O-][N+]1(Cc2ccc(Oc3nsnc3Cl)cc2)CCC(C(O)(c2ccc(C(F)(F)F)cc2)c2ccc(C(F)(F)F)cc2)CC1 (stereo not drawn) [Compound 30] |  |  | 40% |  | 
CC(C)n1nnc(-c2ccc(CN3CCC(C(O)(c4ccc(C(F)(F)F)cc4)c4ccc(C(F)(F)F)cc4)CC3)cc2)n1 [Compound 35] |  |  | 100% |  | 
CC(C)n1nnc(-c2ccc(C[N+]3([O-])CCC(C(O)(c4ccc(C(F)(F)F)cc4)c4ccc(C(F)(F)F)cc4)CC3)cc2)n1 (stereo not drawn) [Compound 36] |  |  | 100% |  | 

SMILES | IC50 | LC50 | mortality at 100 µM | pest or weed control at 100 µM | Percent Growth Inhibition
CC(C)(C)n1nnc(-c2ccc(CN3CCC(C(O)(c4ccc(C(F)(F)F)cc4)c4ccc(C(F)(F)F)cc4)CC3)cc2)n1 [Compound 37] |  |  | 100% |  | 
OC(c1ccc(C(F)(F)F)cc1)(c1ccc(C(F)(F)F)cc1)C1CCN(Cc2ccc(-c3nnn(C(F)F)n3)cc2)CC1 [Compound 38] | 0.631 µM | 2.51 µM | 100% |  | 100%
[O-][N+]1(Cc2ccc(-c3nnn(C(F)F)n3)cc2)CCC(C(O)(c2ccc(C(F)(F)F)cc2)c2ccc(C(F)(F)F)cc2)CC1 (stereo not drawn) [Compound 39] |  |  | 100% |  | 
OC(c1ccc(C(F)(F)F)cc1)(c1ccc(C(F)(F)F)cc1)C1CCN(Cc2ccc(-c3nnn(CCCF)n3)cc2)CC1 [Compound 40] | 0.631 µM | 3.98 µM | 100% |  | 100%
COCn1nnc(-c2ccc(CN3CCC(C(O)(c4ccc(C(F)(F)F)cc4)c4ccc(C(F)(F)F)cc4)CC3)cc2)n1 [Compound 41] |  |  | 100% |  | 
COCn1nnc(-c2ccc(C[N+]3([O-])CCC(C(O)(c4ccc(C(F)(F)F)cc4)c4ccc(C(F)(F)F)cc4)CC3)cc2)n1 (stereo not drawn) [Compound 42] |  |  | 100% |  | 
OC(c1ccc(C(F)(F)F)cc1)(c1ccc(C(F)(F)F)cc1)C1CCN(Cc2ccc(-c3ccccn3)cc2)CC1 [Compound 43] | ≤ 0.316 µM | 3.16 µM | 100% |  | 100%
[O-][N+]1(Cc2ccc(-c3ccccn3)cc2)CCC(C(O)(c2ccc(C(F)(F)F)cc2)c2ccc(C(F)(F)F)cc2)CC1 (stereo not drawn) [Compound 44] |  |  | 100% |  | 
[O-][n+]1ccccc1-c1ccc(CN2CCC(C(O)(c3ccc(C(F)(F)F)cc3)c3ccc(C(F)(F)F)cc3)CC2)cc1 [Compound 45] |  |  | 100% |  | 
[O-][n+]1ccccc1-c1ccc(C[N+]2([O-])CCC(C(O)(c3ccc(C(F)(F)F)cc3)c3ccc(C(F)(F)F)cc3)CC2)cc1 (stereo not drawn) [Compound 46] |  |  | 100% |  | 
OC(c1ccc(C(F)(F)F)cc1)(c1ccc(C(F)(F)F)cc1)C1CCN(Cc2ccc(-c3ccc(Cl)cn3)cc2)CC1 [Compound 47] | 31.6 µM | 31.6 µM | 100% |  | 100%
[O-][N+]1(Cc2ccc(-c3ccc(Cl)cn3)cc2)CCC(C(O)(c2ccc(C(F)(F)F)cc2)c2ccc(C(F)(F)F)cc2)CC1 (stereo not drawn) [Compound 48] |  |  | 85% |  | 
Cc1cccc(-c2ccc(CN3CCC(C(O)(c4ccc(C(F)(F)F)cc4)c4ccc(C(F)(F)F)cc4)CC3)cc2)n1 [Compound 49] |  |  | 100% |  | 
Cc1cccc(-c2ccc(C[N+]3([O-])CCC(C(O)(c4ccc(C(F)(F)F)cc4)c4ccc(C(F)(F)F)cc4)CC3)cc2)n1 (stereo not drawn) [Compound 50] |  |  | 100% |  | 
Cc1ccc(-c2ccc(CN3CCC(C(O)(c4ccc(C(F)(F)F)cc4)c4ccc(C(F)(F)F)cc4)CC3)cc2)nc1 [Compound 51] |  |  | 100% |  | 
OC(c1ccc(C(F)(F)F)cc1)(c1ccc(C(F)(F)F)cc1)C1CCN(Cc2ccc(Oc3ccccn3)cc2)CC1 [Compound 53] |  |  | 100% |  | 
[O-][N+]1(Cc2ccc(Oc3ccccn3)cc2)CCC(C(O)(c2ccc(C(F)(F)F)cc2)c2ccc(C(F)(F)F)cc2)CC1 (stereo not drawn) [Compound 54] |  |  | 100% |  | 
[O-][n+]1ccccc1Oc1ccc(CN2CCC(C(O)(c3ccc(C(F)(F)F)cc3)c3ccc(C(F)(F)F)cc3)CC2)cc1 [Compound 55] | 3.16 µM | 79.4 µM | 55% |  | 100%
[O-][n+]1ccccc1Oc1ccc(C[N+]2([O-])CCC(C(O)(c3ccc(C(F)(F)F)cc3)c3ccc(C(F)(F)F)cc3)CC2)cc1 (stereo not drawn) [Compound 56] |  |  | 100% |  | 
Cc1cccnc1Oc1ccc(CN2CCC(C(O)(c3ccc(C(F)(F)F)cc3)c3ccc(C(F)(F)F)cc3)CC2)cc1 [Compound 57] | 0.794 µM | 7.94 µM | 100% |  | 100%
